# pIC50: −log10 of the molar value. Calls of active or inactive are those of the source. The calls are words filed in the database; no cut-off is given here.
# Columns and labels:
# A549 [1] = assay: Induction of apoptosis in human A549 cells assessed as viable cells at 25 nM incubated for 24 hrs by Annexin V/7-Aad staining based flow cytometry (reference value: 93.63 %); assay type: functional; details: read-out: Activity
# A549 [2] = assay: Antitumor activity against human A549 cells xenografted in Balb/c nude mouse assessed as tumor growth inhibition at 25 mg/kg, IG qd for 21 days relative to control; assay type: functional; details: A549, po, 504 h, time 21 day, read-out: TGI
# [3] = Lipophilicity, logP of compound in n-octanol-water at 5 mg/ml incubated for 8 hrs by HPLC analysis; assay type: physicochemical
# A549 [4] = assay: Induction of apoptosis in human A549 cells assessed as early apoptotic cells at 50 nM incubated for 24 hrs by Annexin V/7-Aad staining based flow cytometry (reference value: 1.05 %); assay type: functional
# A549/TR = assay: Antiproliferative activity against human A549/Taxol cells assessed as cell growth inhibition incubated for72 hrs by MTT assay; assay type: functional, cell-based
# [5] = Toxicity in Balb/c nude mouse xenografted with human A549 cells assessed as damage in spleen at 25 mg/kg, IG qd for 21 days by H and E staining based analysis; assay type: organism-based; details: in vivo, po, 504 h, time 21 day
# A549 [6] = assay: Induction of cell cycle arrest at G1 phase in human A549 cells at 12.5 nM incubated for 24 hrs by flow cytometry (reference value: 71.30 %); assay type: functional
# A549 [7] = assay: Induction of apoptosis in human A549 cells assessed as early apoptotic cells at 25 nM incubated for 24 hrs by Annexin V/7-Aad staining based flow cytometry (reference value: 1.05 %); assay type: functional
# A549 [8] = assay: Induction of cell cycle arrest at G2/M phase in human A549 cells at 25 nM incubated for 24 hrs by flow cytometry (reference value: 3.84 %); assay type: functional
# [9] = Inhibition of pig brain tubulin polymerization measured after 20 mins by absorbance based assay; assay type: tissue-based, Sus scrofa
# Huh-7 = assay: cells; details: Homo sapiens
# Description: Antiproliferative activity against human Huh-7 cells assessed as cell growth inhibition incubated for72 hrs by MTT assay
# [10] = Toxicity in Balb/c nude mouse xenografted with human A549 cells assessed as body weight loss at 25 mg/kg, IG qd for 21 days; assay type: organism-based; details: in vivo, po, 504 h, time 21 day
# A549 [11] = assay: Induction of apoptosis in human A549 cells assessed as late apoptotic cells at 12.5 nM incubated for 24 hrs by Annexin V/7-Aad staining based flow cytometry (reference value: 3.20 %); assay type: functional
# A549 [12] = assay: Induction of cell cycle arrest at G1 phase in human A549 cells at 25 nM incubated for 24 hrs by flow cytometry (reference value: 71.30 %); assay type: functional
# A549 [13] = assay: Induction of apoptosis in human A549 cells assessed as early apoptotic cells at 12.5 nM incubated for 24 hrs by Annexin V/7-Aad staining based flow cytometry (reference value: 1.05 %); assay type: functional
# [14] = Resistance index, ratio of IC50 for human A549/Taxol cells to IC50 for human A549 cells; assay type: functional
# A549 [15] = assay: Induction of apoptosis in human A549 cells assessed as necrotic cells at 50 nM incubated for 24 hrs by Annexin V/7-Aad staining based flow cytometry (reference value: 2.13 %); assay type: functional
# Sus scrofa = organism: Sus scrofa; assay: Inhibition of pig brain tubulin polymerization by absorbance based assay; assay type: tissue-based; details: dose <= 6.0 µM
# A549 [16] = assay: Induction of apoptosis in human A549 cells assessed as necrotic cells at 12.5 nM incubated for 24 hrs by Annexin V/7-Aad staining based flow cytometry (reference value: 2.13 %); assay type: functional
# A549 [17] = assay: Induction of apoptosis in human A549 cells assessed as viable cells at 50 nM incubated for 24 hrs by Annexin V/7-Aad staining based flow cytometry (reference value: 93.63 %); assay type: functional; details: read-out: Activity
# A549 [18] = assay: Induction of cell cycle arrest at G2/M phase in human A549 cells at 12.5 nM incubated for 24 hrs by flow cytometry (reference value: 3.84 %); assay type: functional
# A549 [19] = assay: cells; details: Homo sapiens
# Description: Antiproliferative activity against human A549 cells assessed as cell growth inhibition incubated for72 hrs by MTT assay
# A549 [20] = assay: Induction of cell cycle arrest at S phase in human A549 cells at 25 nM incubated for 24 hrs by flow cytometry (reference value: 24.86 %); assay type: functional
# T-24 = assay: cells; details: Homo sapiens
# Description: Antiproliferative activity against human T-24 cells assessed as cell growth inhibition incubated for72 hrs by MTT assay
# [21] = Toxicity in Balb/c nude mouse xenografted with human A549 cells assessed as damage in kidney at 25 mg/kg, IG qd for 21 days by H and E staining based analysis; assay type: organism-based; details: in vivo, po, 504 h, time 21 day
# Tubulin (Homo sapiens) [22] = target: T1, Tubulin (Homo sapiens) (UniProt P68371+Q9H4B7+P0DPH7+P68366+Q13509+Q71U36+P04350+Q3ZCM7+P07437+P68363+Q9BQE3+Q6PEY2+Q13885+Q9BVA1+Q9BUF5); assay: Inhibition of tubulin polymerization in human A549 cells assessed as disruption of microtubule aggregation incubated for 24 hrs by immunofluorescence based analysis; assay type: cell-based; details: dose 12.5-25 nM
# A549 [23] = assay: Induction of cell cycle arrest at S phase in human A549 cells at 12.5 nM incubated for 24 hrs by flow cytometry (reference value: 24.86 %); assay type: functional
# Tubulin (Homo sapiens) [24] = target: T1, Tubulin (Homo sapiens); assay: Binding affinity to tubulin polymerization in human A549 cells assessed as N,N'-ethylene- bis(iodoacetamide)/beta-tubulin adduct formation at 5 uM incubated for 2 hrs by chemiluminescence based assay; assay type: cell-based
# A549 [25] = assay: Inhibition of cell migration in human A549 cells at 50 nM incubated for 24 hrs by wound healing assay relative to control; assay type: functional
# A549 [26] = assay: Inhibition of cell migration in human A549 cells at 12.5 nM incubated for 24 hrs by wound healing assay relative to control; assay type: functional
# A549 [27] = assay: Inhibition of cell migration in human A549 cells at 25 nM incubated for 24 hrs by wound healing assay relative to control; assay type: functional
# A549 [28] = assay: Induction of apoptosis in human A549 cells assessed as viable cells at 12.5 nM incubated for 24 hrs by Annexin V/7-Aad staining based flow cytometry (reference value: 93.63 %); assay type: functional; details: read-out: Activity
# [29] = Aqueous solubility of compound in pH 7.4 at 10 mg/ml by HPLC analysis; assay type: physicochemical; details: buffer
# A549 [30] = assay: Induction of apoptosis in human A549 cells assessed as late apoptotic cells at 25 nM incubated for 24 hrs by Annexin V/7-Aad staining based flow cytometry (reference value: 3.20 %); assay type: functional
# Tubulin (Homo sapiens) [31] = target: T1, Tubulin (Homo sapiens); assay: Binding affinity to tubulin polymerization at colchicine-binding site in human A549 cells assessed as N,N'-ethylene- bis(iodoacetamide)/beta-tubulin adduct formation incubated for 2 hrs by chemiluminescence based assay; assay type: cell-based; details: dose 0.1-25 µM
# Tubulin (Homo sapiens) [32] = target: T1, Tubulin (Homo sapiens); assay: Inhibition of tubulin polymerization in human A549 cells assessed as decrease in spindle formation incubated for 24 hrs by immunofluorescence based analysis; assay type: cell-based; details: dose 12.5-25 nM
# A549 [33] = assay: Induction of apoptosis in human A549 cells assessed as late apoptotic cells at 50 nM incubated for 24 hrs by Annexin V/7-Aad staining based flow cytometry (reference value: 3.20 %); assay type: functional
# A549 [34] = assay: Induction of apoptosis in human A549 cells assessed as necrotic cells at 25 nM incubated for 24 hrs by Annexin V/7-Aad staining based flow cytometry (reference value: 2.13 %); assay type: functional
# [35] = Toxicity in Balb/c nude mouse xenografted with human A549 cells assessed as damage in liver at 25 mg/kg, IG qd for 21 days by H and E staining based analysis; assay type: organism-based; details: in vivo, po, 504 h, time 21 day
smiles,measurement,setting,value
COc1cc(-n2ncc3ccc(-c4ccc(C)nc4)cc32)cc(OC)c1OC.Cl,viability at 0.025 µM,A549 [1],69.1%
same,inhibition in vivo at 25 mg/kg,A549 [2],64.1%
same,logP at 8 h,[3],1.8
same,Activity,A549 [4],26.53%
same,pIC50,A549/TR,7.48
same,Activity,[5],Non-Toxic
same,Activity,A549 [6],68.78%
same,Activity,A549 [7],16.41%
same,Activity,A549 [8],89.07%
same,pIC50,[9],5.76
same,pIC50,Huh-7,7.52
same,Activity,[10],Non-Toxic
same,Activity,A549 [11],3.28%
same,Activity,A549 [12],3.04%
same,Activity,A549 [13],3.02%
same,Ratio IC50,[14],1.2
same,Activity,A549 [15],1.19%
same,inhibition,Sus scrofa,Dose-Dependent Effect
same,Activity,A549 [16],1.44%
same,viability at 0.05 µM,A549 [17],56.6%
same,Activity,A549 [18],13.1%
same,pIC50,A549 [19],7.57
same,Activity,A549 [20],7.88%
same,pIC50,T-24,7.34
same,Activity,[21],Non-Toxic
same,inhibition,Tubulin (Homo sapiens) [22],Dose-Dependent Effect
same,Activity,A549 [23],18.11%
same,Activity,Tubulin (Homo sapiens) [24],Active
same,inhibition at 0.05 µM,A549 [25],83.9%
same,inhibition at 0.0125 µM,A549 [26],32.3%
same,inhibition at 0.025 µM,A549 [27],52.2%
same,viability at 0.0125 µM,A549 [28],92.3%
same,solubility,[29],149 µg/mL
same,Activity,A549 [30],12.23%
same,Activity,Tubulin (Homo sapiens) [31],Dose-Dependent Effect
same,inhibition,Tubulin (Homo sapiens) [32],Dose-Dependent Effect
same,Activity,A549 [33],15.65%
same,Activity,A549 [34],2.26%
same,Activity,[35],Non-Toxic
